How the values were obtained:
[1] = system: serum cholesterol; assay: subchronic action on the blood cholesterol values of dogs in feeding experiments; assay type: in vivo; conditions: 8 mg/kg p.o. daily for 2 weeks; beagle dogs; colestyramine 4 g/100 g of feed throughout; vs values before administration
Procedure: The subchronic action of the compounds according to the invention on the blood cholesterol values of dogs was tested in feeding experiments of several weeks duration. For this, the substance to be investigated was given p.o. once daily in a capsule to healthy beagle dogs together with the feed over a period of time lasting several weeks. Colestyramine (4 g/100 g of feed) as the […] sequestrant was additionally admixed in the feed during the entire experimental period, i.e. before, during and after the administration period of the substances to be investigated. Venous blood was taken from the dogs twice weekly and the serum cholesterol was determined enzymatically using a commercial test kit. The serum cholesterol values during the administration period were compared with the serum cholesterol values before the administration period (controls).

[2] = molecular target: T1, HMG-CoA reductase (3-hydroxy-3-methyl-glutaryl coenzyme A reductase) (Rattus norvegicus, UniProt P51639); assay: determination of HMG-CoA reductase enzyme activity (rat liver enzyme preparation); relative inhibitory potency vs mevinolin; conditions: relative inhibitory potency from IC50 values; IC50 of reference mevinolin set at 1; 20 min preincubation, 60 min at 37° C.
T1 sequence (P51639 1-887): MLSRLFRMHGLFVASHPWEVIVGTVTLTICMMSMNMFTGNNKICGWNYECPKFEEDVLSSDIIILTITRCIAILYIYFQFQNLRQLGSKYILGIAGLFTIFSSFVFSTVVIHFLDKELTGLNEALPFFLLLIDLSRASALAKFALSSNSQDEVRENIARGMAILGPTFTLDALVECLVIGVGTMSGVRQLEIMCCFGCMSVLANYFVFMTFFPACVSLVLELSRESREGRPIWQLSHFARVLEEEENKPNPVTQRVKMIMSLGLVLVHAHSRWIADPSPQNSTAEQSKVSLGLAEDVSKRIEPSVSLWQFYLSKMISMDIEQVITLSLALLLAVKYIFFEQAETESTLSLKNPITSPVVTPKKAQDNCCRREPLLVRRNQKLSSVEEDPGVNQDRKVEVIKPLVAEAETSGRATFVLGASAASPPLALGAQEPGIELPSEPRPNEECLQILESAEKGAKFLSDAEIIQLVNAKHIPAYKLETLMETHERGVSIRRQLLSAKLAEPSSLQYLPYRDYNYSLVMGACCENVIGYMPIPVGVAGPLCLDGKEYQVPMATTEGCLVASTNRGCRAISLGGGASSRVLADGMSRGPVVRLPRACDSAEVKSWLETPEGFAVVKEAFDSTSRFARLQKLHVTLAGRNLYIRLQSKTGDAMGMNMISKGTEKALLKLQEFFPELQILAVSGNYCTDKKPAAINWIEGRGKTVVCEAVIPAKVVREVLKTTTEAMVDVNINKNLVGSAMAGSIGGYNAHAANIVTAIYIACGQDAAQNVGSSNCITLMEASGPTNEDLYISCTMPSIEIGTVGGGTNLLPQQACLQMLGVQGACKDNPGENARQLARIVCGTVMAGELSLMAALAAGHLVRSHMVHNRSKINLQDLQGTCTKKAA
Procedure: Male Rico rats (body weight 300-400 g) were treated for 11 days with Altromin powdered feed, to which 40 g of colestyramine/kg of feed was added. After decapitation, the liver was removed from the animals and placed on ice. The livers were comminuted and homogenized 3 times in a Potter-Elvejem homogenizer in 3 volumes of 0.1 M saccharose, 0.05 M KCl, 0.04 M Kx Hy phosphate, 0.03 M ethylenediaminetetraacetic acid, 0.002 M dithiothreitol (SPE) buffer pH 7.2. The mixture was subsequently centrifuged for 15 minutes at 15,000* g and the sediment rejected. The supernatant was sedimented for 75 minutes at 100,000 g. The pellet is taken up in 1/4 volume of SPE buffer, homogenized once again and subsequently centrifuged again for 60 minutes at 100,000 g. The pellet is taken up using the 5-fold amount of its volume of SPE buffer, homogenized and frozen and stored at -78° C. (=enzyme solution).
For testing, the test compounds (or mevinolin as a reference substance) were dissolved in dimethylformamide with the addition of 5% by volume of 1 N NaOH and employed in the enzyme test in various concentrations using 10 μl. The test was started after preincubation of the compound with the enzyme at 37° C. for 20 minutes. The test batch was 0.380 ml and contained 4 μmol of glucose-6-phosphate, 1.1 mg of bovine serum albumin, 2.1 μmol of dithiothreitol, 0.35 μmol of NADP, 1 unit of glucose-6-phosphate dehyrogenase 35 μmol of KxHy phosphate PH 7.2, 20 μl of enzyme preparation and 56 nmol of 3x hydroxy-3-methyl-glutarylconenzyme A (glutaryl-3-^14 C) 100,000 dpm.
After incubation for 60 minutes at 37° C., the batch was centrifuged and 600 μl of the supernatant was applied to a 0.7×4 cm column filled with a 5-chloride 100-200 mesh (anion exchanger). It was washed with 2 ml of distilled water and 3 ml of aquasol were added to the runnings plus washing water and counted in the LKB scintillation counter. IC50 values were determined by intrapolation by plotting the percentage inhibition against the concentration of the compound in the test. To determine the relative inhibitory potency, the IC50 value of the reference substance mevinolin was set at 1 and compared with the simultaneously determined IC50 value of the test compound.

Structure (SMILES) | lowering of the serum cholesterol [1] | Rel. Activity (Mevinolin = 1) [2]
COC(=O)C[C@H](O)C[C@H](O)/C=C/c1c(C(C)C)nc(C(C)C)c(COCc2ccccc2)c1-c1ccc(F)cc1 (relative stereo) [Example 17, Methyl erythro-(E)-7-[3-benzyloxymethyl-2,6-diisopropyl-4-(4-fluorophenyl)-pyrid-5-yl]-3,5-dihydroxy-hept-6-enoate] | about 66% | 20
CCC(C)(C)C(=O)OCc1c(C(C)C)nc(C(C)C)c(/C=C/[C@@H](O)C[C@@H](O)CC(=O)OC)c1-c1ccc(F)cc1 (relative stereo) [Example 70, Methyl erythro-(E)-7-[2,6-diisopropyl-5-(2,2-dimethyl-butyryloxymethyl)-4-(4-fluorophenyl)-pyrid-3-yl]-3,5-dihydroxy-hept-6-enoate] |  | 30
COC(=O)C[C@H](O)C[C@H](O)/C=C/c1c(C(C)C)nc(C(C)C)c(COC(C)=O)c1-c1ccc(F)cc1 (relative stereo) [Example 72, methyl erythro-(E)-7-[3-acetoxymethyl-2,6-diisopropyl-4-(4-fluorophenyl)-pyrid-5-yl]-3,5-dihydroxy-hept-6-enoate] |  | 17
COCc1c(C2CC2)nc(C(C)C)c(/C=C/[C@@H](O)C[C@@H](O)CC(=O)OC)c1-c1ccc(F)cc1 (relative stereo) [Example 85, Methyl erythro-(E)-7-[6-cyclopropyl-2-isopropyl-4-(4-fluorophenyl)-5-methoxymethyl-pyrid-3-yl]-3,5-dihydroxy-hept-6-enoate] |  | 20
COC(=O)C[C@H](O)C[C@H](O)/C=C/c1c(C(C)C)nc(C(C)C)c(COc2ccccc2)c1-c1ccc(F)cc1 (relative stereo) [Example 89, Methyl erythro-(E)-7-[2,6-diisopropyl-4-(4-fluorophenyl)-5-phenoxymethyl-pyrid-3-yl]-3,5-dihydroxy-hept-6-enoate] |  | 10
COC(=O)C[C@H](O)C[C@H](O)/C=C/c1c(C(C)C)nc(C(C)C)c(-c2ccccc2)c1-c1ccc(F)cc1 (relative stereo) [Example 99] |  | 20
CCOC(=O)c1c(C(C)C)nc(C(C)C)c(/C=C/[C@@H](O)C[C@@H](O)CC(=O)OC)c1-c1ccc(F)cc1 (relative stereo) [Example 100, Methyl erythro-(E)-7-[2,6-diisopropyl-4-(4-fluorophenyl)-5-carboxyethyl-pyrid-3-y]-3,5-dihydroxy-hept-6-enoate] |  | 30
COC(=O)C[C@H](O)C[C@H](O)/C=C/c1c(C(C)C)nc(C(C)C)c(CN2CCOCC2)c1-c1ccc(F)cc1 (relative stereo) [Example 105, Methyl erythro-(E)-7-[2,6-diisopropyl-4-(4-fluorophenyl)-5-morpholinomethyl-pyrid-3-yl]-3,5-dihydroxy-hept-6-enoate] |  | 4
COC(=O)C[C@H](O)C[C@H](O)/C=C/c1c(C(C)C)nc(C(C)C)c(CSCc2ccccc2)c1-c1ccc(F)cc1 (relative stereo) [Example 107, Methyl erythro-(E)-7-[2,6-diisopropyl-4-[4-fluorophenyl)-5-benzylthio-methyl-pyrid-3-yl]-3,5-dihydroxy-hept-6-enoate] |  | 3
COC(=O)C[C@H](O)C[C@H](O)/C=C/c1c(-c2ccc(F)cc2)nc(C)c(C#N)c1C(C)C (relative stereo) [Example 139, Methyl erythro-(E)-7-[5-cyano-2-(4-fluorophenyl)-4-isopropyl-6-methyl-pyrid-3-yl]-3,5-dihydroxy-hept-6-enoate] |  | 20

From patent publication US5169857A, “7-(polysubstituted pyridyl)-hept-6-endates useful for treating hyperproteinaemia, lipoproteinaemia or arteriosclerosis” (Bayer Aktiengesellschaft, priority 1988, dated 1992)
